Where two headings read alike, the source gives them in different places.
Key:
[1] = target: T1, human 5-HT2B receptor (Homo sapiens, UniProt P41595); assay: 5-HT2B receptor functional activity (agonist) using Ca2+ mobilization assay in Flp-In T-REx 293 cells; type: cell-based; conditions: for Maximal 5-HT effect: maximal effect relative to 5-HT = 100%; for Emax: Flp-In-T-REx-293, read-out: Maximal 5-HT effect; for agonist effect at 5-HT2B receptors: highest concentration examined (10,000 nM)
T1 construct: host or cells: Flp-In T-REx 293 cells (HEK 293)
T1 sequence (P41595 whole entry): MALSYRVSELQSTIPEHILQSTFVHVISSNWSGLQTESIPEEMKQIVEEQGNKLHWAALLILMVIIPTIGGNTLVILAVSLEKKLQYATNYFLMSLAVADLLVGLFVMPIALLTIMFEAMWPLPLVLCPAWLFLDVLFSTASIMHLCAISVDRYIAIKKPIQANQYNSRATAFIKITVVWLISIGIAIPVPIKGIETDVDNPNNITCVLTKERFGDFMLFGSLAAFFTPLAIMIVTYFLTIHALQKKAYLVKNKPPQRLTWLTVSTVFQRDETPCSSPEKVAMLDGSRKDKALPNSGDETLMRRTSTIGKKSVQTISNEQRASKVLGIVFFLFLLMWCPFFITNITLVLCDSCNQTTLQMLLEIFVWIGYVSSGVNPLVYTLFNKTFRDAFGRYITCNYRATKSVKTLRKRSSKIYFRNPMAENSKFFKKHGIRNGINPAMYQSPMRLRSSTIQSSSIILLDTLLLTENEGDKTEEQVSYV

[2] = target: human 5-HT2A; parameters: method as in Nelson et al., 1999; conditions: cloned human 5-HT2A vs [125I]DOI; ref Nelson et al., 1999; cited from earlier work
[3] = substituent constant; ref Hansch et al. 1973; cited from earlier work
[4] = target: rat 5-HT2; parameters: method as in Seggel et al., 1990; conditions: rat brain 5-HT2 vs [3H]ketanserin; ref Seggel et al., 1990; cited from earlier work
[5] = target: human 5-HT2B; parameters: method as in Nelson et al., 1999; conditions: human 5-HT2B vs [3H]5-HT; ref Nelson et al., 1999; cited from earlier work
[6] = test system: human 5-HT2B receptors; parameters: method as in Porter et al. (1999); conditions: CHO cells, intracellular calcium; ref Porter et al. (1999); cited from earlier work
[7] = test system: 5-HT2B receptor; parameters: method as in Huang et al. (2009); conditions: multiple functional assays; ref Huang et al. (2009); cited from earlier work
[8] = target: T1, human 5-HT2B receptor; assay: 5-HT2B receptor antagonism of 10 nM 5-HT Ca2+ signal in Flp-In T-REx 293 cells; type: cell-based
Experimental: A stable cell line was generated expressing the human 5-HT2B receptor using the Flp-In T-REx system (Thermo Fisher) ([Younkin et al., 2016]; [Steele et al., 2021]). Briefly, 5-HT2B receptor coding plasmid was obtained from cDNA Resource Center (cat # HTR02B0000). The 5-HT2B receptor cDNA was subcloned into the pcDNA/FRT/TO expression plasmid, and was co-transfected with pOG44 plasmid (coding the Flp recombinase) in Flp-In T-REx 293 cells. Cells were selected using 100 μg/mL of hygromycin and resistant cells were expanded and stored in liquid N2 for later use. For experimentation, stable cell lines were plated in Matrigel-coated 96-well imaging plates in Dulbecco’s Modified Eagle Medium (DMEM) containing 10% fetal bovine serum (FBS) and 5% penicillin/streptomycin, and the medium was supplemented with doxycycline (1 μg/mL) to upregulate the expression of the receptor 3 days before the experiment. Then, cells were loaded with Fura 2-AM for 30 min in Ca^2+ imaging solution (IS) consistent of 130 NaCl, 4 KCl, 2 CaCl2, 1 MgCl2, 10 HEPES, 10 glucose (in mM, pH adjusted to 7.4). […] Three wells containing cells were analyzed for each concentration per experiment day. […] All data were processed used Fiji software by ImageJ2 which allowed manual selection of cells and measurement of fluorescence. […]

[9] = test system: rat 5-HT2A; parameters: method as in Seggel et al., 1990; Glennon 2017; conditions: ref Seggel et al., 1990; Glennon 2017; cited from earlier work
[10] = agonist potency, Ca2+ mobilization, Hill slope 1.0
[11] = agonist potency, Ca2+ mobilization, Hill slope 1.0, read-out: h5-HT2B EC50

| SMILES | h5-HT2B pEC50 ± SEM [1, 10] | EC50 [1, 11] | Maximal 5-HT effect [1] | potency relative to R (−) enantiomer at 5-HT2B ([1]; optical isomers of 2,5-DMA) | h5-HT2A pKi [2] | π (lipophilic character of 4-position substituent) [3] | σp (electronic character of 4-position substituent) [3] | EC50 [1] | Emax [1] | r5-HT2 pKi [4] | h5-HT2B pKi [5] | % of the effect of 5-HT at human 5-HT2B [6] | 5-HT2B receptor agonist action [7] | action on the 5-HT-mediated response at 5-HT2B [8] | rat 5-HT2A functional action [9] | agonist effect at 5-HT2B receptors [1] |
| --- | --- | --- | --- | --- | --- | --- | --- | --- | --- | --- | --- | --- | --- | --- | --- | --- |
| COc1ccc(OC)c(C[C@H](C)N)c1 [S (+)1a] | 6.32 ± 0.15 | 480 nM | 100% | about six times more potent | – | – | – | – | – | – | – | – | – | – | – | – |
| COc1cc(C(C)(C)C)c(OC)cc1CC(C)N (stereo not shown) [1l] | – | – | – | – | 8.43 | 1.98 | -0.20 | 37.2 nM | 69% | 7.72 | 7.61 | – | – | – | – | – |
| COc1cc(CC(C)N)c(OC)cc1I (stereo not shown) [1e] | – | – | 71% | – | – | 1.12 | 0.18 | 37.2 nM | – | 7.72 | 7.70 | 65% | potent 5-HT2B receptor agonist | – | – | – |
| COc1cc(OC)c(OC)cc1CC(C)N (stereo not shown) [1f] | – | – | – | – | 7.24 | -0.02 | -0.27 | – | – | 5.90 | 6.51 | – | – | – | – | – |
| COc1cc(CC(C)N)c(OC)cc1Cc1ccccc1 (stereo not shown) [1m] | – | – | – | – | 9.40 | 2.01 | -0.09 | > 10000 nM | 0% | 8.15 | 7.64 | – | – | behaved as antagonists | lack rat 5-HT2A agonist action and behave as antagonists | failed to produce an agonist effect |
| COc1cc(CC(C)N)c(OC)cc1Cl (stereo not shown) [1c] | – | – | – | – | 8.85 | 0.71 | 0.23 | – | – | 6.66 | 7.50 | – | – | – | – | – |
| CCCc1cc(OC)c(CC(C)N)cc1OC (stereo not shown) [1j] | – | – | 75% | – | 9.05 | 1.55 | -0.13 | 55 nM | – | 7.16 | – | – | – | – | – | – |
| COc1ccc(OC)c(CC(C)N)c1 (stereo not shown) [1a, 1-(2,5-dimethoxyphenyl)isopropylamine] | – | – | – | – | 6.68 | – | 0 | 3390 nM | 93% | 5.28 | 5.98 | – | – | – | – | – |
| COc1ccc(OC)c(C[C@@H](C)N)c1 (single isomer, unassigned) [R (−) enantiomer] | 5.49 ± 0.16 | 3240 nM | 87% | – | – | – | – | – | – | – | – | – | – | – | – | – |
| COc1cc(CC(C)N)c(OC)cc1C#N (stereo not shown) [1i] | – | – | – | – | 7.34 | -0.57 | 0.66 | – | – | 5.62 | 6.11 | – | – | – | – | – |
| COc1cc(CC(C)N)c(OC)cc1Br (stereo not shown) [1d] | – | – | – | – | 9.22 | 0.86 | 0.23 | 8.7 nM | 70% | – | 7.53 | 69% | – | – | – | – |
| COc1cc(CC(C)N)c(OC)cc1F (stereo not shown) [1b] | – | – | – | – | 7.38 | 0.14 | 0.06 | 439 nM | 82% | 5.96 | 6.64 | – | – | – | – | – |
| CCCCCCc1cc(OC)c(CC(C)N)cc1OC (stereo not shown) [1k] | – | – | 0% | – | 10.00 | 3.05 | -0.13 | > 10000 nM | – | 8.60 | 7.52 | – | – | behaved as antagonists | lack rat 5-HT2A agonist action and behave as antagonists | failed to produce an agonist effect |
| COc1cc([N+](=O)[O-])c(OC)cc1CC(C)N (stereo not shown) [1h] | – | – | – | – | 8.26 | -0.28 | 0.78 | 89 nM | 77% | 6.52 | 6.78 | – | – | – | – | – |
| CCOc1cc(OC)c(CC(C)N)cc1OC (stereo not shown) [1g] | – | – | – | – | 7.14 | 0.38 | -0.24 | 557 nM | 70% | 5.66 | 6.12 | – | – | – | – | – |
